{"source": "paper PMC11455950", "about": "“Effects of SZV-2649, a new multiple ion channel inhibitor mexiletine analogue” (Scientific Reports, 2024)", "key": {"[1]": {"tested_on": "dog right ventricular muscle preparations", "experiment": "Conventional microelectrode action potential recording, dog ventricular muscle", "details": "for APA / APD50 / APD90 / RP / Vmax: ventricular muscle, CL = 1000 ms, n = 8", "description": "The effects of SZV-2649 on action potentials were studied in dog ventricular, atrial and Purkinje fiber preparations.\nThe Class I antiarrhythmic property of SZV-2649 was further studied with different frequency-dependent protocols. […]. Action potentials were recorded in cardiac ventricular trabeculae and papillary muscle preparations obtained from the right ventricles of Beagle dogs (10–15 kg) of either sex using the conventional microelectrode technique. Dogs were sacrificed by iv. sedation with xylazine (1 mg/kg), followed by i.v. administration of 50 mg/kg pentobarbital. After the cornea reflex disapeared the chest was opened, and the heart was rapidly removed. The heart was immediately rinsed in oxygenated modified Locke’s solution containing (in mM): NaCl 128.3, KCl 4, CaCl2 1.8, MgCl2 0.42, NaHCO3 21.4, and glucose 10. The pH of this solution was set between 7.35 and 7.4 when gassed with the mixture of 95% O2 and 5% CO2 at 37 °C.\nIsolated papillary muscle or atrial trabecula and Purkinje fiber preparations were obtained and prepared from the right ventricle and were individually mounted in a tissue chamber with the volume of 50 ml. Each preparation was initially stimulated through a pair of platinum electrodes in contact with the preparation using rectangular current pulses of 2 ms duration. These stimuli were delivered at a constant cycle length of 1000 ms for at least 60 min allowing the preparation to equilibrate before the measurements were initiated. Transmembrane potentials were recorded using conventional glass microelectrodes, filled with 3 M KCl and having tip resistances of 5–20 MΩ, connected to the input of a high impedance electrometer (Experimetria, type 309, Budapest, Hungary) which was coupled to a dual beam oscilloscope. […] Stimulation with a constant cycle length of 1000 ms was applied in the course of all experiments. Attempts were made to maintain the same impalement throughout each experiment. In case an impalement became dislodged, adjustment was attempted, and if the action potential characteristics of the re-established impalement deviated by less than 5% from the previous measurement, the experiment continued[64]–[67]. All measurements were carried out at 37 °C."}}, "data": [{"smiles": "CC(N)COc1c(I)cc(C#N)cc1I.Cl", "note": "(stereo not shown) [SZV-2649, 4-(2-aminopropoxy)-3,5-diiodobenzonitrile hydrochloride]", "values": [{"measurement": "APA", "setting": "[1]; 5 µM", "result": "118.3 ± 1.9", "unit": "mV"}, {"measurement": "APD50", "setting": "[1]; 5 µM", "result": "212.2 ± 5.7", "unit": "ms"}, {"measurement": "APD90", "setting": "[1]; 5 µM", "result": "251.6 ± 4.0", "unit": "ms"}, {"measurement": "RP", "setting": "[1]; 5 µM", "result": "−84.5 ± 2.0", "unit": "mV"}, {"measurement": "Vmax", "setting": "[1]; 5 µM", "result": "227.4 ± 24.2", "unit": "V/s"}, {"measurement": "Recovery time constant of Vmax (offset kinetics of Vmax block, τoffset)", "setting": "[1]; 10 µM, dog ventricular muscle, premature stimulation from 1 Hz basic frequency", "result": 590, "unit": "ms"}, {"measurement": "APA", "setting": "[1]; 10 µM", "result": "117.1 ± 2.1", "unit": "mV"}, {"measurement": "APD50", "setting": "[1]; 10 µM", "result": "213.4 ± 5.8", "unit": "ms"}, {"measurement": "APD90", "setting": "[1]; 10 µM", "result": "252.8 ± 5.0", "unit": "ms"}, {"measurement": "RP", "setting": "[1]; 10 µM", "result": "−86.1 ± 2.0", "unit": "mV"}, {"measurement": "Vmax", "setting": "[1]; 10 µM", "result": "203.2 ± 24.3", "unit": "V/s"}, {"measurement": "Vmax", "setting": "[1]; […]", "result": "228.3 ± 23.5", "unit": "V/s"}, {"measurement": "melting point", "result": "216 to 219", "unit": "°C"}]}]}
